Data set [1] deals with Plasma. Kind of data set: Ratio of Vmax to Km in human plasma assessed as hydrolysis measured per mg of protein by single-enzyme Michaelis-Menten model. The format is ADME.
Data set [2] in a line: Prodrug conversion in recombinant human PON1 192QQ mutant expressed in FreeStyle 293-F cells assessed as hydrolysis measured per mg of protein at 10 uM in presence of Zn2+. The format is ADME, cell-based.
Data set [3] in a line: Prodrug conversion in recombinant human PON1 192QQ mutant expressed in FreeStyle 293-F cells assessed as hydrolysis by single-enzyme Michaelis-Menten model. The format is ADME, cell-based.
Data set [4] is described as follows: Prodrug conversion in recombinant human PON1 192RR mutant expressed in FreeStyle 293-F cells assessed as hydrolysis by single-enzyme Michaelis-Menten model. Type of data set: ADME, cell-based.
A short description of data set [5]: Ratio of Vmax to Km in recombinant human PON1 192QQ mutant expressed in FreeStyle 293-F cells assessed as hydrolysis measured per mg of protein by single-enzyme Michaelis-Menten model. The format is ADME, cell-based.
The nature of data set [6]: Prodrug conversion in human serum HDL assessed as conversion velocity per mg of protein at 10 uM in presence of Tris-HCl/Ca2+. Type of data set: ADME, cell-free.
The subject of data set [7] is Plasma. Kind of data set: Prodrug conversion in human plasma assessed as hydrolysis measured per mg of protein at 10 uM in presence of Mg2+. The format is ADME, cell-free.
Data set [8] is described as follows: Ratio of Vmax to Km in recombinant human PON1 192RR mutant expressed in FreeStyle 293-F cells assessed as hydrolysis measured per mg of protein by single-enzyme Michaelis-Menten model. Type of data set: ADME, cell-based.
Data set [9] can be described thus: Prodrug conversion in human serum LPDS assessed as distribution of hydrolyzing activity measured per ml of serum at 10 uM in presence of Tris-HCl/Ca2+. The format is ADME, cell-free.
A short description of data set [10]: Prodrug conversion in recombinant human PON1 192QQ mutant expressed in FreeStyle 293-F cells measured per mg of protein by single-enzyme Michaelis-Menten model. Type of data set: ADME, cell-based.
Data set [11] in a line: Prodrug conversion in human serum LPDS assessed as conversion velocity per mg of protein at 10 uM in presence of Tris-HCl/Ca2+. The format is ADME, cell-free.
Data set [12] is described as follows: Prodrug conversion in human serum LPDS assessed as conversion velocity per mg of protein at 10 uM in presence of KPB. The format is ADME, cell-free.
In data set [13] the test system is Plasma. The experiment in a line: Prodrug conversion in human plasma assessed as hydrolysis by single-enzyme Michaelis-Menten model. Type of data set: ADME, cell-free.
Data set [14] can be described thus: Prodrug conversion in human serum LDL assessed as distribution of hydrolyzing activity measured per ml of serum at 10 uM in presence of Tris-HCl/Ca2+. Type of data set: ADME, cell-free.
A short description of data set [15]: Prodrug conversion in human serum LDL assessed as conversion velocity at 10 uM measured per mg of protein in presence of Tris-HCl/Ca2+. Type of data set: ADME, cell-free.
Data set [16] has as its target T1, Albumin (Homo sapiens, UniProt P02768). Kind of data set: Prodrug conversion in human serum albumin assessed as hydrolysis measured per mg of protein at 10 uM in presence of Mg2+. Type of data set: ADME.
The subject of data set [17] is Plasma. Kind of data set: Prodrug conversion in human plasma assessed as hydrolysis measured per mg of protein at 10 uM in presence of Zn2+. Type of data set: ADME, cell-free.
Data set [18] can be described thus: Prodrug conversion in recombinant human PON1 192RR mutant expressed in FreeStyle 293-F cells assessed as hydrolysis measured per mg of protein at 10 uM in presence of Mg2+. Type of data set: ADME, cell-based.
Data set [19] deals with Plasma. Kind of data set: Prodrug conversion in human plasma assessed as hydrolysis in presence of 4 fold anti-PON1 IgG/plasma ratio. Type of data set: ADME.
Data set [20] relates to Plasma. Kind of data set: Prodrug conversion in human plasma assessed as hydrolysis measured per mg of protein at 10 uM in presence of Ca2+. Type of data set: ADME, cell-free.
Data set [21] addresses T1, Albumin. Kind of data set: Prodrug conversion in human serum albumin assessed as hydrolysis measured per mg of protein at 10 uM in presence of Zn2+. Type of data set: ADME.
The nature of data set [22]: Prodrug conversion in human serum VLDL and chylomicron assessed as distribution of hydrolyzing activity measured per ml of serum at 10 uM in presence of Tris-HCl/Ca2+. The format is ADME, cell-free.
Data set [23] in a line: Prodrug conversion in recombinant human PON1 192RR mutant expressed in FreeStyle 293-F cells measured per mg of protein by single-enzyme Michaelis-Menten model. The format is ADME, cell-based.
A short description of data set [24]: Prodrug conversion in human serum VLDL and chylomicron assessed as conversion velocity at 10 uM measured per mg of protein in presence of Tris-HCl/Ca2+. Type of data set: ADME, cell-free.
Data set [25] is described as follows: Prodrug conversion in recombinant human PON1 192RR mutant expressed in FreeStyle 293-F cells assessed as hydrolysis measured per mg of protein at 10 uM in presence of Ca2+. The format is ADME, cell-based.
The target of data set [26] is T1, Albumin. Kind of data set: Prodrug conversion in human serum albumin assessed as hydrolysis measured per mg of protein at 10 uM in presence of Ca2+. Type of data set: ADME.
The test system of data set [27] is Plasma. The experiment in a line: Prodrug conversion in human plasma assessed as hydrolysis measured per mg of protein by single-enzyme Michaelis-Menten model. Type of data set: ADME, cell-free.
A short description of data set [28]: Prodrug conversion in human serum LPDS assessed as distribution of hydrolyzing activity measured per ml of serum at 10 uM in presence of KPB. The format is ADME, cell-free.
The target in data set [29] is T1, Albumin. The experiment in a line: Ratio of Vmax to Km in human serum albumin assessed as hydrolysis measured per mg of protein by single-enzyme Michaelis-Menten model. Type of data set: ADME.
Data set [30] in a line: Prodrug conversion in human serum HDL assessed as distribution of hydrolyzing activity measured per ml of serum at 10 uM in presence of Tris-HCl/Ca2+. The format is ADME, cell-free.
The nature of data set [31]: Prodrug conversion in recombinant human PON1 192RR mutant expressed in FreeStyle 293-F cells assessed as hydrolysis measured per mg of protein at 10 uM in presence of Zn2+. The format is ADME, cell-based.
Data set [32] can be described thus: Prodrug conversion in recombinant human PON1 192QQ mutant expressed in FreeStyle 293-F cells assessed as hydrolysis measured per mg of protein at 10 uM in presence of Mg2+. Type of data set: ADME, cell-based.
Data set [33] is described as follows: Prodrug conversion in recombinant human PON1 192QQ mutant expressed in FreeStyle 293-F cells assessed as hydrolysis measured per mg of protein at 10 uM in presence of Ca2+. Type of data set: ADME, cell-based.
The subject of data set [34] is CCCc1nc(C(C)(C)O)c(C(=O)OCc2oc(=O)oc2C)n1Cc1ccc(-c2ccccc2-c2nnn[nH]2)cc1. Kind of data set: Prodrug conversion in human serum albumin assessed as hydrolysis by single-enzyme Michaelis-Menten model. Type of data set: ADME.

T1 sequence (P02768 whole entry): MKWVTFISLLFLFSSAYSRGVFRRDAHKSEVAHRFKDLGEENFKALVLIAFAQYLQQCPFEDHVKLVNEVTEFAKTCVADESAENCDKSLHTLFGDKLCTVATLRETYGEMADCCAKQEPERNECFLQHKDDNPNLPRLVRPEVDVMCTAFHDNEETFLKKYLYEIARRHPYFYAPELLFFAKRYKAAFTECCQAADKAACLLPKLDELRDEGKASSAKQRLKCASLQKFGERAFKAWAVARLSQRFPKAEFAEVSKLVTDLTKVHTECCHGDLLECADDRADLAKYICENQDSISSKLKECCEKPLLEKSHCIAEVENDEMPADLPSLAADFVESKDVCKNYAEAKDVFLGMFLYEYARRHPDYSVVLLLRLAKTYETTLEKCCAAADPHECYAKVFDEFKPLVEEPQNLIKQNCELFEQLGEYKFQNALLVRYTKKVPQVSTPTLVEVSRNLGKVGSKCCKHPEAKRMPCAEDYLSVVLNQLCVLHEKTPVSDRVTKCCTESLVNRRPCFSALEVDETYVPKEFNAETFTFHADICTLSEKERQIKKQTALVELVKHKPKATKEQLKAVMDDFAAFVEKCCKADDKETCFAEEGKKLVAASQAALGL

`CCCc1nc(C(C)(C)O)c(C(=O)OCc2oc(=O)oc2C)n1Cc1ccc(-c2ccccc2-c2nnn[nH]2)cc1` [OLMESARTAN MEDOXOMIL]: the Vmax/Km in the data set on Plasma [1] turned out to be 2.77 mL/min; in data set [5], 0.79 mL/min; in data set [8], 1.37 mL/min; at Albumin [29], 0.00737 mL/min. The Activity in data set [2] was determined as 0.75 nmol/min; in data set [6] it was 277 nmol/min; in the data set with Plasma [7], 0.266 nmol/min; in [9] it was 35.6 nmol/min; in [11] it was 0.516 nmol/min; in [12] it was 0.131 nmol/min. The Activity came to 4.07 nmol/min in [14]; 12.6 nmol/min in data set [15]; 0.0106 nmol/min at Albumin [16]; 0.0918 nmol/min in the data set with Plasma [17]; 2.25 nmol/min in data set [18]; 7.91 nmol/min in the data set on Plasma [20]. The Activity at Albumin [21] turned out to be 0.0164 nmol/min; in data set [22], 2.42 nmol/min; in [24], 13.9 nmol/min; in [25], 20.6 nmol/min; on Albumin [26], 0.0102 nmol/min; in [28], 9.04 nmol/min. Further, the Activity in data set [30] worked out at 596 nmol/min; in [31], 1.75 nmol/min; in [32], 0.65 nmol/min; in data set [33], 9.5 nmol/min. The Km in [3] is 157 µM; in data set [4] it was 102 µM; in the data set on Plasma [13] it was 6.71 µM. In addition, the Vmax is 124 nmol/min in data set [10], 140 nmol/min in data set [23] and 18.6 nmol/min in the data set on Plasma [27]. Moreover, in the data set on Plasma [19], the Drug metabolism entry is “metabolite_not_detected”.
For Albumin (Homo sapiens), in [34], the Km was determined as 354 µM and the Vmax was found to be 0.00261 µmol/min.

For orientation: Km means the concentration of substrate that gives half-maximal velocity. One may read the Vmax as the top rate of the reaction or transport when substrate is in excess.

The values are drawn from ChEMBL document CHEMBL3525929, “Paraoxonase 1 as a major bioactivating hydrolase for olmesartan medoxomil in human blood circulation: molecular identification and contribution to plasma metabolism” (Drug Metab Dispos, 2012).
